Assay results published in US9743665B2, “Fungicidal 3-{phenyl[heterocyclylmethoxy)imino]methyl}-oxadiazolone derivatives” (BAYER CROPSCIENCE AKTIENGESELLSCHAFT, priority 2013, dated 2017).
Like-named read-outs stand apart in the source and are kept apart here. Marks after values point to notes of the source that are not given here.

Assays:
[1] = for LogP: Table 1, formula (I), method [a]: HPLC/LC-MS at pH 2.7, 0.1% formic acid in water / acetonitrile gradient; for chromatographic logP: pH 2.7
Procedure: (§1) Measurement of IogP values was performed according EEC directive 79/831 Annex V.A8 by HPLC (High Performance Liquid Chromatography) on reversed phase columns with the following methods:
(§2) Measurement of LC-MS was done at pH 2.7 with 0.1% formic acid in water and with acetonitrile (contains 0.1% formic acid) as eluent with a linear gradient from 10% acetonitrile to 95% acetonitrile.
(§3) Calibration was done with not branched alkan2-ones (with 3 to 16 carbon atoms) with known logP-values (measurement of logP values using retention times with linear interpolation between successive alkanones). lambda-maX-values were determined using UV-spectra from 200 nm to 400 nm and the peak values of the chromatographic signals.

[2] = test system: Phytophthora infestans; assay type: in vivo; details: tomato plants, preventive spray, 500 ppm of active ingredient, evaluated 5 days after inoculation
[3] = pH 2.7
Procedure: as §1, §2, §3

[4] = test system: Plasmopara viticola; test: Example J: Plasmopara test (grapevines)/preventive; assay type: in vivo; details: grapevine plants, preventive spray, 10 ppm of active ingredient, evaluated 6 days after inoculation
Procedure: Example J: Plasmopara Test (Grapevines)/Preventive
To produce a suitable preparation of active compound, 1 part by weight of active compound is mixed with the stated amounts of solvent and emulsifier, and the concentrate is diluted with water to the desired concentration.
To test for preventive activity, young plants are sprayed with the preparation of active compound at the stated rate of application. After the spray coating has dried on, the plants are inoculated with an aqueous spore suspension of Plasmopara viticola and then remain for 1 day in an incubation cabinet at approximately 20° C. and a relative atmospheric humidity of 100%. The plant is subsequently placed for 4 days in a greenhouse at approximately 21° C. and a relative atmospheric humidity of approximately 90%. The plants are then misted and placed for 1 day in an incubation cabinet.
The test is evaluated 6 days after the inoculation. 0% means an efficacy which corresponds to that of the untreated control, while an efficacy of 100% means that no disease is observed.

[5] = test system: Septoria tritici; test: Example G: in vivo preventive test on Septoria tritici (leaf spot on wheat); details: wheat plants, preventive spray, 500 ppm of active ingredient, evaluated 24 days after inoculation
Procedure: Example G: In Vivo Preventive Test on Septoria tritici (Leaf Spot on Wheat)
The tested active ingredients are prepared by homogenization in a mixture of acetone/Dimethyl sulfoxide/Tween®, and then diluted with water to obtain the desired active material concentration.
The young plants of wheat are treated by spraying the active ingredient prepared as described above. Control plants are treated only with an aqueous solution of acetone/Dimethyl sulfoxide/Tween®.
After 24 hours, the plants are contaminated by spraying the leaves with an aqueous suspension of Septoria tritici spores. The contaminated wheat plants are incubated for 72 hours at 18° C. and at 100% relative humidity and then for 21 days at 20° C. and at 90% relative humidity.
The test is evaluated 24 days after the inoculation. 0% means an efficacy which corresponds to that of the control plants while an efficacy of 100% means that no disease is observed.

SMILES: Cn1c(/C(=N\OCc2nc(NC(=O)Cc3ccccc3)cs2)c2ccccc2)noc1=O [Example 19]
- LogP [1]: 3.21^[a]
- % efficacy [2]: 98%

SMILES: CCCC#Cc1csc(CO/N=C(/c2ccccc2)c2noc(=O)[nH]2)n1 [Example 26]
- LogP [3]: 3.47^[a]

SMILES: CCCC#Cc1csc(CON=C(C#N)c2ccccc2)n1 [Example IV-6]
- LogP [3]: 4.41^[a]

SMILES: N#CC(=NOCc1nc(Br)cs1)c1ccccc1 [Example IV-3, {[(4-bromo-1,3-thiazol-2-yl)methoxy]imino}(phenyl)acetonitrile]
- chromatographic logP [1]: 3.61

SMILES: CCCCC#Cc1csc(CON=C(C#N)c2ccccc2)n1 [Example IV-7]
- LogP [3]: 4.83^[a]

SMILES: Cn1c(/C(=N\OCc2nc(NC(=O)C3CCc4ccccc4O3)cs2)c2ccccc2)noc1=O (stereo not shown) [Example 27]
- Eff. % [4]: 99%
- % efficacy [2]: 92%
- LogP [3]: 3.77^[a]

SMILES: Cn1c(/C(=N\OCc2nc(NC(=O)COc3ccccc3)cs2)c2ccccc2)noc1=O [Example 28]
- % efficacy [2]: 73%
- LogP [3]: 3.30^[a]

SMILES: C=CCOC(=O)Nc1csc(CO/N=C(/c2ccccc2)c2noc(=O)n2C)n1 [Example 42]
- LogP [3]: 3.02^[a]

SMILES: Cn1c(/C(=N\OCc2nc(/C=C/C3CC3)cs2)c2ccccc2)noc1=O [Example 34]
- % efficacy [2]: 100%
- LogP [3]: 3.90^[a]
- % efficacy [5]: 86%

SMILES: COC(=O)c1csc(CON=C(C#N)c2ccccc2)n1 [Example IV-2]
- LogP [3]: 2.80^[a]

SMILES: O=c1[nH]c(/C(=N\OCc2nc(C#CC3CCCCC3)cs2)c2ccccc2)no1 [Example 32]
- LogP [3]: 4.33^[a]

SMILES: CCCC#Cc1csc(CO/N=C(/c2ccccc2)c2noc(=O)n2C)n1 [Example 22]
- Eff. % [4]: 85%
- % efficacy [2]: 100%
- LogP [3]: 3.87^[a]

SMILES: Cn1c(/C(=N\OCc2nc(NC(=O)C(C)(C)C)cs2)c2ccccc2)noc1=O [Example 11]
- % efficacy [2]: 100%
- LogP [3]: 3.23^[a]

SMILES: CC(OCC(=O)Nc1csc(CO/N=C(/c2ccccc2)c2noc(=O)n2C)n1)c1ccccc1 (stereo not shown) [Example 38]
- Eff. % [4]: 96%
- % efficacy [2]: 100%
- LogP [3]: 4.32^[a]

SMILES: Cn1c(C(=NOCc2nc(Br)cs2)c2ccccc2)noc1=O [Example 3, 3-[{[(4-bromo-1,3-thiazol-2-yl)methoxy]imino}(phenyl)methyl]-4-methyl-1,2,4-oxadiazol-5(4H)-one]
- chromatographic logP [1]: 3.25

SMILES: N#CC(=NOCn1ccc(N)n1)c1ccccc1 [Example IV-4]
- LogP [3]: 1.86^[a]

SMILES: C#CCCOC(=O)Nc1csc(CO/N=C(/c2ccccc2)c2noc(=O)n2C)n1 [Example 1]
- % efficacy [2]: 98%
- LogP [3]: 2.97^[a]

SMILES: Cn1oc(=O)nc1/C(=N\OCn1ccc([N+](=O)[O-])n1)c1ccccc1 [Example 2, 2-methyl-3-[(Z)-{[(3-nitro-1H-pyrazol-1-yl)methoxy]imino}(phenyl)methyl]-1,2,4-oxadiazol-5(2H)-one]
- chromatographic logP [1]: 2.1

SMILES: CCCCC/C=C/c1csc(CO/N=C(/c2ccccc2)c2noc(=O)n2C)n1 [Example 30]
- % efficacy [2]: 97%
- LogP [3]: 5.23^[a]

SMILES: NC(=NO)C(=NOCc1nc(Br)cs1)c1ccccc1 [Example V-2]
- LogP [3]: 1.86^[a]

SMILES: CCCCCC#Cc1csc(CON=C(C#N)c2ccccc2)n1 [Example IV-10]
- LogP [3]: 5.27^[a]

SMILES: CC(C)C#Cc1csc(CO/N=C(/c2ccccc2)c2noc(=O)n2C)n1 [Example 23]
- LogP [1]: 3.86^[a]
- % efficacy [2]: 99%

SMILES: CC(Oc1ccccc1)C(=O)Nc1csc(CO/N=C(/c2ccccc2)c2noc(=O)n2C)n1 (stereo not shown) [Example 40]
- Eff. % [4]: 99%
- % efficacy [2]: 100%
- LogP [3]: 3.55^[a]

SMILES: CN(O)C(=N)/C(=N\OCn1ccc([N+](=O)[O-])n1)c1ccccc1 [Example VI-1, (2Z)—N-hydroxy-N-methyl-2-{[(3-nitro-1H-pyrazol-1-yl)methoxy]imino}-2-phenylethanimidamide]
- chromatographic logP [1]: 1.15

SMILES: Cn1c(/C(=N\OCc2nc(C#CCCc3ccccc3)cs2)c2ccccc2)noc1=O [Example 12]
- % efficacy [2]: 100%
- LogP [3]: 4.30^[a]

SMILES: N#C/C(=N\OCn1ccc([N+](=O)[O-])n1)c1ccccc1 [Example IV-1, (2Z)-{[(3-nitro-1H-pyrazol-1-yl)methoxy]imino}(phenyl)acetonitrile]
- chromatographic logP [1]: 2.9

SMILES: N#CC(=NOCc1nc(C#CC2CCCCC2)cs1)c1ccccc1 [Example IV-9]
- LogP [3]: 5.42^[a]

SMILES: CCCCCC#Cc1csc(CON=C(C(N)=NO)c2ccccc2)n1 [Example V-6]
- LogP [3]: 3.37^[a]

SMILES: CCCC(C)C(=O)Nc1csc(CO/N=C(/c2ccccc2)c2noc(=O)n2C)n1 (stereo not shown) [Example 36]
- % efficacy [2]: 99%
- LogP [3]: 3.45^[a]

SMILES: Cn1oc(=O)nc1/C(=N\OCc1nc(Br)cs1)c1ccccc1 [Example 14, 3-[(Z)-{[(4-bromo-1,3-thiazol-2-yl)methoxy]imino}(phenyl)methyl]-2-methyl-1,2,4-oxadiazol-5(2H)-one]
- chromatographic logP [1]: 2.6
- % efficacy [2]: 74%

SMILES: N#CC(=NOCc1nc(C#CC2CC2)cs1)c1ccccc1 [Example IV-8]
- LogP [3]: 4.04^[a]

SMILES: CCCCC#Cc1csc(CO/N=C(/c2ccccc2)c2noc(=O)n2C)n1 [Example 21]
- % efficacy [2]: 100%
- LogP [3]: 4.26^[a]

SMILES: CN(O)C(=N)/C(=N\OCc1nc(Br)cs1)c1ccccc1 [Example VI-2, (2Z)-2-{[(4-bromo-1,3-thiazol-2yl)methoxy]imino}-N-hydroxy-N-methyl-2-phenylethanimidamide]
- chromatographic logP [1]: 1.49

SMILES: Cn1c(/C(=N\OCc2nc(/C=C/Cc3ccccc3)cs2)c2ccccc2)noc1=O [Example 41]
- LogP [3]: 4.39^[a]

SMILES: Cn1c(/C(=N\OCc2nc(/C=C/C3CCCCC3)cs2)c2ccccc2)noc1=O [Example 29]
- % efficacy [2]: 83%
- LogP [3]: 5.39^[a]
- % efficacy [5]: 79%

SMILES: Cc1ccc(C(=O)Nc2csc(CO/N=C(/c3ccccc3)c3noc(=O)n3C)n2)cc1 [Example 17]
- Eff. % [4]: 84%
- % efficacy [2]: 100%
- LogP [3]: 3.34^[a]

SMILES: Cn1c(/C(=N\OCc2nc(C(=O)NC(C)(C)C)cs2)c2ccccc2)noc1=O [Example 5]
- % efficacy [2]: 100%
- LogP [3]: 3.22^[a]
- % efficacy [5]: 86%

SMILES: NC(=NO)C(=NOCn1ccc(N)n1)c1ccccc1 [Example V-1]
- LogP [3]: 0.65^[a]

SMILES: CCCC#Cc1csc(CON=C(C(N)=NO)c2ccccc2)n1 [Example V-3]
- LogP [3]: 2.59^[a]

SMILES: CCCCC#Cc1csc(CO/N=C(/c2ccccc2)c2noc(=O)[nH]2)n1 [Example 25]
- LogP [3]: 3.39^[a]

SMILES: CCCCC#Cc1csc(CON=C(C(N)=NO)c2ccccc2)n1 [Example V-4]
- LogP [3]: 2.98^[a]

SMILES: Cn1c(/C(=N\OCc2nc(C(=O)NC3CCCCC3)cs2)c2ccccc2)noc1=O [Example 9]
- % efficacy [2]: 79%
- LogP [3]: 3.43^[a]

SMILES: Cn1oc(=O)nc1/C(=N\OCc1nc(C#CC2CC2)cs1)c1ccccc1 [Example 4, 3-[(Z)-({[4-(cyclopropylethynyl)-1,3-thiazol-2-yl]methoxy}imino)(phenyl)methyl]-2-methyl-1,2,4-oxadiazol-5(2H)-one]
- chromatographic logP [1]: 3.04
- % efficacy [2]: 100%

SMILES: Cn1oc(=O)nc1/C(=N\OCc1nc(C(=O)NC(C)(C)C)cs1)c1ccccc1 [Example 43]
- LogP [3]: 2.61^[a]

SMILES: Cn1oc(=O)nc1/C(=N\OCn1ccc(N)n1)c1ccccc1 [Example 8, 3-[(Z)-{[(3-amino-1H-pyrazol-1-yl)methoxy]imino}(phenyl)methyl]-2-methyl-1,2,4-oxadiazol-5(2H)-one]
- chromatographic logP [1]: 1.29

SMILES: NC(=NO)C(=NOCc1nc(C#CC2CCCCC2)cs1)c1ccccc1 [Example V-5]
- LogP [3]: 3.42^[a]

SMILES: Cn1c(/C(=N\OCc2nc(C#CCc3ccccc3)cs2)c2ccccc2)noc1=O [Example 39]
- % efficacy [2]: 88%
- LogP [3]: 4.07^[a]

SMILES: CCCCCC#Cc1csc(CO/N=C(/c2ccccc2)c2noc(=O)n2C)n1 [Example 37]
- % efficacy [2]: 100%
- LogP [3]: 4.72^[a]

SMILES: Cn1c(/C(=N\OCc2nc(C#CC3CCCCC3)cs2)c2ccccc2)noc1=O [Example 31]
- % efficacy [2]: 94%
- LogP [3]: 4.80^[a]

SMILES: Cn1c(/C(=N\OCc2nc(NC(=O)COCc3ccccc3)cs2)c2ccccc2)noc1=O [Example 35]
- % efficacy [2]: 93%
- LogP [3]: 3.45^[a]

SMILES: CCCC/C=C/c1csc(CO/N=C(/c2ccccc2)c2noc(=O)n2C)n1 [Example 24]
- % efficacy [2]: 98%
- LogP [3]: 4.77^[a]

SMILES: N#CC(=NOCc1nc(C#CCCCc2ccccc2)cs1)c1ccccc1 [Example IV-5]
- LogP [3]: 5.19^[a]
